Assay [1] has as its target T1, Alpha-1B adrenergic receptor (Rattus norvegicus, UniProt P15823).
T1 sequence (P15823 whole entry): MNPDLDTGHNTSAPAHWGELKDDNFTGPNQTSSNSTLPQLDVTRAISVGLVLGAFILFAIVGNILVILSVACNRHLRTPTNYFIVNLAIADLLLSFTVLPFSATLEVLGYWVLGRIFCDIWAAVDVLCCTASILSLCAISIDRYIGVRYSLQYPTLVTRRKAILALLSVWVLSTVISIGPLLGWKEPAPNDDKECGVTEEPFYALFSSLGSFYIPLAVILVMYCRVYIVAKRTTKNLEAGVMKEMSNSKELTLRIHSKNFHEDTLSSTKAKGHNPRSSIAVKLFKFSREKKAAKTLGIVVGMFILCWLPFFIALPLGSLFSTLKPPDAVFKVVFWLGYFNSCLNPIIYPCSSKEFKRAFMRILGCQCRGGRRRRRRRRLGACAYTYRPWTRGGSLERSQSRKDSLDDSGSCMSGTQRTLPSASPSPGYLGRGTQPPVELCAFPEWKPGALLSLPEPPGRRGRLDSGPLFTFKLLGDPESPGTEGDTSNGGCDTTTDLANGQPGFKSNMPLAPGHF
The assay is described as follows: DRUGMATRIX: Alpha-1B adrenergic receptor radioligand binding (ligand: prazosin). In kind it is cell membranes, Wistar, Liver, Membrane. The settings on record: Not Active = under 50% inhibition at 10 µM.

For assay [2], the target named is 5-hydroxytryptamine receptor 6 (Homo sapiens, UniProt P50406). It counts as cell membranes, HeLa, Membrane. The conditions noted are these: hela. Note: in other assays of this panel Not Active means under 50% inhibition at 10 µM.
Sequence of 5-hydroxytryptamine receptor 6 (P50406 whole entry): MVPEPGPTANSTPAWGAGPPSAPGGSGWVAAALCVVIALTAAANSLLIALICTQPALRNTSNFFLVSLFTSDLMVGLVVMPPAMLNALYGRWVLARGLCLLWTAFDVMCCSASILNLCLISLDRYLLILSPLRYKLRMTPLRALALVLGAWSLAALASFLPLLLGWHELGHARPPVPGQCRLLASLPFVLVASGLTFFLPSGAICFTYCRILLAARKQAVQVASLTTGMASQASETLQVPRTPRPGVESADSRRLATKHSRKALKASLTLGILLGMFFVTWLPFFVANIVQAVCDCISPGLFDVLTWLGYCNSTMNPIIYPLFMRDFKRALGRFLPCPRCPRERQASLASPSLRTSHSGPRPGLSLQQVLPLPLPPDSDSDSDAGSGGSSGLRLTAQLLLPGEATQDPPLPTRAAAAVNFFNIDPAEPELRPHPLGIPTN
Assay [3] is described as follows: DRUGMATRIX: Glutamate, AMPA radioligand binding (ligand: [3H] AMPA). It counts as cell membranes, Rattus norvegicus, Wistar, Cerebral cortex, Membrane. The settings on record: Not Active = under 50% inhibition at 10 µM.
Assay [4] is described as follows: DRUGMATRIX: Atrial Natriuretic Factor (ANF) radioligand binding (ligand: [125I] ANF (rat)). The settings on record: Not Active = under 50% inhibition at 10 µM. In kind it is cell membranes, Cavia porcellus, Dunkin-Hartley, Adrenal gland, Membrane.
Assay [5] has as its target T2, Neutrophil elastase (Homo sapiens, UniProt P08246).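 Note: inhibition of neutrophil elastase enzyme activity, measured with a p-nitroanilide-linked peptide substrate; in other assays of this panel Not Active means under 50% inhibition at 10 µM.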
T2 sequence (P08246 whole entry): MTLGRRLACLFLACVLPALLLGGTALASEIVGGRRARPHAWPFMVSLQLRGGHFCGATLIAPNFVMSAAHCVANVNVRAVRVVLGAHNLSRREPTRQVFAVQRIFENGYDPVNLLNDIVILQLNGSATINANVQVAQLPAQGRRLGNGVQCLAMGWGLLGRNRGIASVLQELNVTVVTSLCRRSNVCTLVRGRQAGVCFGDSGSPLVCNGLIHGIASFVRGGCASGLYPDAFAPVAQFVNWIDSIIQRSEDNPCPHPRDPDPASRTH
It counts as tissue-based.

The target in assay [6] is Tyrosine-protein kinase Fyn (Homo sapiens, UniProt P06241). Put plainly: biochemical. It counts as cell-based, Insect cells. The conditions noted are these: insect cells.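 Note: enzymatic inhibition of Fyn kinase activity measured with Poly(Glu:Tyr) as the phosphorylation substrate; in other assays of this panel Not Active means under 50% inhibition at 10 µM.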
Sequence of Tyrosine-protein kinase Fyn (P06241 whole entry): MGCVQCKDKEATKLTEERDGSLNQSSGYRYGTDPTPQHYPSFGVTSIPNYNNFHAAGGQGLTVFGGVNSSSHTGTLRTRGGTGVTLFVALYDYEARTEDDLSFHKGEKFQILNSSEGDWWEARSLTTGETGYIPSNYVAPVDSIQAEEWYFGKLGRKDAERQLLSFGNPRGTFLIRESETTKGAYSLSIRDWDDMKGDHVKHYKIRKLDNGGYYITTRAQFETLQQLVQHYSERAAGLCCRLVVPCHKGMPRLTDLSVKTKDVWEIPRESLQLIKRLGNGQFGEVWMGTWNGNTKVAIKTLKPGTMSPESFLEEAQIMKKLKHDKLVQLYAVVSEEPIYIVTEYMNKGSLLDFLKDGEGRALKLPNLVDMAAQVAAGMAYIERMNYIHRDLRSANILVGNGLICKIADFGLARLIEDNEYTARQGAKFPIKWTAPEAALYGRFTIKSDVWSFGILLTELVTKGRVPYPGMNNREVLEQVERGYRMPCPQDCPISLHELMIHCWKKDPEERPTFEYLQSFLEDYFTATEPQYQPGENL

The IC50 is the concentration that gives 50% inhibition.

In the case of `C=CCc1ccc(O)c(OC)c1` [EUGENOL], the IC50 entry in assay [1], in assay [2], in assay [3], in assay [4], in assay [5] and in assay [6] was “Not Active” in each case. In addition, the Ki entry in assay [3] and in assay [4] was “Not Active” in each case.
In the case of `CCn1cc(C(=O)O)c(=O)c2cnc(N3CCCC3)nc21` [PIROMIDIC ACID], the IC50 result in assay [1], in assay [2], in assay [3], in assay [4], in assay [5] and in assay [6] was “Not Active” in each case. The Ki result in assay [3] and in assay [4] was “Not Active” in each case.
With `CC(C)c1cccc(C(C)C)c1O` [PROPOFOL], the IC50 entry in assay [1], in assay [2], in assay [3], in assay [4], in assay [5] and in assay [6] was “Not Active” in each case. For the same compound, the Ki entry in assay [3] and in assay [4] was “Not Active” throughout.
Regarding `COC(=O)Nc1nc2ccc(C(=O)c3cccs3)cc2[nH]1` [NOCODAZOLE], the IC50 result in assay [1], in assay [2], in assay [3], in assay [4], in assay [5] and in assay [6] was “Not Active” throughout. Besides, the Ki entry in assay [3] and in assay [4] was “Not Active” throughout.
Consider AURANOFIN, for which the 50% inhibitory concentration (IC50) entry is “Not Active” in assay [1]; “Not Active” in assay [2]; “Not Active” in assay [3]; “Not Active” in assay [4]; “Not Active” in assay [5]; 1200 nM in assay [6] (read-out: IC50). In addition, the Ki result in assay [1], in assay [2], in assay [3], in assay [4] and in assay [5] was “Not Active” throughout.
Regarding `Cc1nnc2n1-c1ccc(Cl)cc1C(c1ccccc1)=NC2` [ALPRAZOLAM], the IC50 entry in assay [1], in assay [2], in assay [3], in assay [4], in assay [5] and in assay [6] was “Not Active” each time. Also, the Ki entry in assay [3] and in assay [4] was “Not Active” throughout.
Consider `CC(=O)[C@H]1[C@H](C#N)C[C@H]2[C@@H]3CC=C4C[C@@H](O)CC[C@]4(C)[C@H]3CC[C@@]21C` [PREGNENOLONE CARBONITRILE], for which the IC50 result in assay [1], in assay [2], in assay [3], in assay [4], in assay [5] and in assay [6] was “Not Active” each time. The Ki result in assay [3] and in assay [4] was “Not Active” in each case.
In the case of `C[C@@H]1CC[C@@]2(OC1)O[C@H]1[C@@H](O)[C@H]3[C@@H]4CC[C@H]5C[C@@H](O[C@@H]6O[C@H](CO)[C@H](O[C@@H]7O[C@H](CO)C(O)[C@H](O[C@@H]8OC[C@@H](O)[C@H](O)[C@H]8O)[C@H]7O[C@@H]7O[C@H](CO)[C@H](O)[C@H](O[C@@H]8O[C@H](CO)[C@@H](O)[C@H](O)[C@H]8O)[C@H]7O)[C@H](O)[C@H]6O)[C@H](O)C[C@]5(C)[C@H]4CC[C@]3(C)[C@H]1[C@@H]2C` (some centres not stated) [DIGITONIN], the IC50 entry in assay [1], in assay [2], in assay [3], in assay [4], in assay [5] and in assay [6] was “Not Active” each time. Further, the Ki entry in assay [3] and in assay [4] was “Not Active” each time.

These data come from ChEMBL document CHEMBL1909046, “DrugMatrix in vitro pharmacology data”.
